Data from patent publication US20060063783A1, “Sulphonylpiperidine derivatives containing an alkenyl or alkynyl moiety for use as matrix metalloproteinase inhibitors” (ASTRAZENECA AB, priority 2002, published 2006).

Molecular target: T1, proTNFα convertase enzyme (TACE) (Homo sapiens, UniProt P78536)
T1 construct: a partially purified, isolated enzyme assay, the enzyme being obtained from the membranes of THP-1; endogenous in cells; host or cells: THP-1 cell membranes (partially purified, per Mohler et al. 1994 Nature 370:218-220)
Test: Partially purified, isolated enzyme assay for proTNFα convertase (TACE), fluorescent peptide substrate
Type: biochemical
Details: 10 μM of compound; enzyme from membranes of THP-1
Procedure: Recombinant human proMMP13 may be expressed and purified as described by Knauper et al. [V. Knauper et al., (1996) The Biochemical Journal 271:1544-1550 (1996)]. […] Activity is determined by measuring the fluorescence at λex 328 nm and λem 393 nm. Percent inhibition is calculated as follows: % Inhibition is equal to the [Fluorescenceplus inhibitor−Fluorescencebackgrouud] divided by the [Fluorescenceminus inhibitor−Fluorescencebackground].
The ability of the compounds to inhibit proTNFα convertase enzyme (TACE) may be assessed using a partially purified, isolated enzyme assay, the enzyme being obtained from the membranes of THP-1 as described by K. M. Mohler et al., (1994) Nature 370:218-220. The purified enzyme activity and inhibition thereof is determined by incubating the partially purified enzyme in the presence or absence of test compounds using the substrate 4′,5′-Dimethoxy-fluoresceinyl Ser.Pro.Leu.Ala.Gln.Ala.Val.Arg.Ser.Ser.Ser.Arg.Cys(4-(3-succinimid-1-yl)-fluorescein)-NH2 in assay buffer (50 mM Tris HCl, pH 7.4 containing 0.1% (w/v) Triton X-100 and 2 mM CaCl2), at 26° C. for 4 hours. The amount of inhibition is determined as for MMP13 except λex 485 nm and λem 538 nm were used. […]

T1 sequence (P78536 215-824): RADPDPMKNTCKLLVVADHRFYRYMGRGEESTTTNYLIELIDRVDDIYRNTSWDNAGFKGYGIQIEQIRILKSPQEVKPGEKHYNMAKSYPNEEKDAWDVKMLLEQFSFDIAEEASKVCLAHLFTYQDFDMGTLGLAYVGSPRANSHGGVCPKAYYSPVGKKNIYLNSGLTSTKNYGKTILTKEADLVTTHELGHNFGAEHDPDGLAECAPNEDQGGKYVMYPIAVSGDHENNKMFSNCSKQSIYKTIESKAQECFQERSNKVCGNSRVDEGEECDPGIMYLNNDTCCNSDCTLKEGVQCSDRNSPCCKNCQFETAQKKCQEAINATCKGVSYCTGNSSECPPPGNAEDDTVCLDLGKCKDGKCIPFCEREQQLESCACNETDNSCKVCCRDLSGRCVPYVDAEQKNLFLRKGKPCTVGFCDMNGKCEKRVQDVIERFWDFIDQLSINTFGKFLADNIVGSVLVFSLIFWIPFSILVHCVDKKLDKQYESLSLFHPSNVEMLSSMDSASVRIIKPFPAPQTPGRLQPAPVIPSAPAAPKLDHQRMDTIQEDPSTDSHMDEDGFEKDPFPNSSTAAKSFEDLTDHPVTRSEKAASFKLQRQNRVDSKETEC

inhibition at 10 µM: 72%
Structure (SMILES): CC#CCOC1CCN(S(=O)(=O)CC(CCCc2ncccn2)N(O)C=O)CC1 (racemic) [compound 1, (R/S)-1-({[4-(But-2-ynyloxy)piperidin-1-yl]sulphonyl}methyl)-4-pyrimidin-2-ylbutyl(hydroxy)formamide]
